In assay [1] the target is T1, MTHFD2 recombinant human enzyme (Homo sapiens, UniProt P13995).
T1 sequence (P13995 36-350): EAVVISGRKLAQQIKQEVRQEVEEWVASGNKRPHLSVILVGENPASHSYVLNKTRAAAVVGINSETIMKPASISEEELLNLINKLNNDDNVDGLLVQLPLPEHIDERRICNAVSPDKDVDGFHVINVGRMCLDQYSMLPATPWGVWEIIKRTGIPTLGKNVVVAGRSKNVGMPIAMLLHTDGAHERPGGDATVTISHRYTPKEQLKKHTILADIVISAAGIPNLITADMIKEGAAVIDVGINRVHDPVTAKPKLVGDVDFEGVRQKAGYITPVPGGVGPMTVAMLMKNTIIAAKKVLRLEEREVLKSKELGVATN
Briefly: MTHFD2 inhibition assay (NAD(P)H-Glo luminescence). The following applies: for MTHFD1/MTHFD2 IC50 ratio: selectivity of MTHFD2 inhibition over MTHFD1, band.

In assay [2] the target is T2, MTHFD1 recombinant human enzyme (Homo sapiens, UniProt P11586).
T2 sequence (P11586 2-291 limits assumed): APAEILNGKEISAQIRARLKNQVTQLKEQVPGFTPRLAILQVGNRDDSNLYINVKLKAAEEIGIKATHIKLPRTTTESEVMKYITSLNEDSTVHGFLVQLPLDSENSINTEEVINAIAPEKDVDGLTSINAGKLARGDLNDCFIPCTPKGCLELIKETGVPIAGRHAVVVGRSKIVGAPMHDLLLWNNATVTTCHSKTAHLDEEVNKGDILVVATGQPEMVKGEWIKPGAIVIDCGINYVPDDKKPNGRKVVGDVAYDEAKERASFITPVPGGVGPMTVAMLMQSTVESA
Briefly: MTHFD1 inhibition assay (NAD(P)H-Glo luminescence). The following applies: MTHFD1 IC50, recombinant human enzyme 200 nM, NADP, band.

Structures are written as SMILES.

Turning to `COC[C@H]1CN(c2ccc3c4c(c(=O)oc3c2Cl)CN(C(=O)c2ccc(C(=O)NS(=O)(=O)N(C)C(C)C)c(OC3CCC3)c2F)CC4)CCN1C` [Example 30, (R)-4-(7-chloro-8-(3-(methoxymethyl)-4-methylpiperazin-1-yl)-5-oxo-1,3,4,5-tetrahydro-2H-chromeno[3,4-c]pyridine-3-carbonyl)-2-cyclobutoxy-3-fluoro-N-(N-isopropyl-N-methylsulfamoyl)benzamide], the IC50 in assay [1] and in assay [2] was 10 to 100 nM each time. Also, in assay [1], the “MTHFD1/MTHFD2 IC50 ratio” value is “F (<3)”.
Consider `COC[C@H]1CN(c2cc(C)c3c4c(c(=O)oc3c2C)CN(C(=O)c2ccc(C(=O)NS(=O)(=O)C3(C)CC3)c(N3CCC3)c2)CC4)CCN1C` [Example 91, (R)-2-(azetidin-1-yl)-4-(8-(3-(methoxymethyl)-4-methylpiperazin-1-yl)-7,10-dimethyl-5-oxo-1,3,4,5-tetrahydro-2H-chromeno[3,4-c]pyridine-3-carbonyl)-N-((1-methylcyclopropyl)sulfonyl)benzamide], for which, in assay [1], the IC50 (in general, the concentration that inhibits the measured activity by half) fell in the range of 1 to 10 nM and the “MTHFD1/MTHFD2 IC50 ratio” value is on record as “G (^ 3 to 9.0)”. Further, the IC50 in assay [2] is 1 to 10 nM.
As for `COC[C@H]1CN(c2ccc3c4c(c(=O)oc3c2C)CN(C(=O)c2cc(OC3CCCC3)c(C(=O)NS(=O)(=O)N(C)C)c(C(F)(F)F)c2)CC4)CCN1C` [Example 117, (R)-2-(cyclopentyloxy)-N-(N,N-dimethylsulfamoyl)-4-(8-(3-(methoxymethyl)-4-methylpiperazin-1-yl)-7-methyl-5-oxo-1,3,4,5-tetrahydro-2H-chromeno[3,4-c]pyridine-3-carbonyl)-6-(trifluoromethyl)benzamide], in assay [1], the IC50 was 100 to 1000 nM and the “MTHFD1/MTHFD2 IC50 ratio” value is “H (>9.0 to 30)”. Also, the IC50 in assay [2] was 1000 to 5000 nM.
On to `CCOc1cc(C(=O)N2CCc3c(c(=O)oc4c(C)c(N5CCN(C)[C@@H](COC)C5)cc(Cl)c34)C2)c(F)cc1C(=O)NS(=O)(=O)N1C2CCC1CC2` [Example 317, (R)-N-((7-azabicyclo[2.2.1]heptan-7-yl)sulfonyl)-4-(10-chloro-8-(3-(methoxymethyl)-4-methylpiperazin-1-yl)-7-methyl-5-oxo-1,3,4,5-tetrahydro-2H-chromeno[3,4-c]pyridine-3-carbonyl)-2-ethoxy-5-fluorobenzamide], for which, in assay [1], the IC50 was 10 to 100 nM and the “MTHFD1/MTHFD2 IC50 ratio” value is “J (>30)”. Besides, in assay [2], the IC50 fell in the range of 100 to 1000 nM.
Turning to `COC[C@H]1CN(c2cc(C)c3c4c(c(=O)oc3c2C)CN(C(=O)c2ccc(C(=O)NS(=O)(=O)N3CCCC3)c(O[C@H]3C[C@@H]5C[C@@H]5C3)c2F)CC4)CCN1C` [Example 66, 2-(((1R,3s,5S)-bicyclo[3.1.0]hexan-3-yl)oxy)-3-fluoro-4-(8-((R)-3-(methoxymethyl)-4-methylpiperazin-1-yl)-7,10-dimethyl-5-oxo-1,3,4,5-tetrahydro-2H-chromeno[3,4-c]pyridine-3-carbonyl)-N-(pyrrolidin-1-ylsulfonyl)benzamide], in assay [1], the IC50 is 1 to 10 nM and the “MTHFD1/MTHFD2 IC50 ratio” value was “F (<3)”. Moreover, the IC50 in assay [2] lay in the range of 1 to 10 nM.
Turning to `COC[C@H]1CN(c2cc(Cl)c3c4c(c(=O)oc3c2C)CN(C(=O)c2cc(OC3CC3)c(C(=O)NS(=O)(=O)N(C)C)cc2F)CC4)CCN1C` [Example 306, (R)-4-(10-chloro-8-(3-(methoxymethyl)-4-methylpiperazin-1-yl)-7-methyl-5-oxo-1,3,4,5-tetrahydro-2H-chromeno[3,4-c]pyridine-3-carbonyl)-2-cyclopropoxy-N-(N,N-dimethylsulfamoyl)-5-fluorobenzamide], the IC50 in assay [1] was 10 to 100 nM; in assay [2] it was 100 to 1000 nM. Moreover, in assay [1], the “MTHFD1/MTHFD2 IC50 ratio” value is “J (>30)”.
In the case of `COC[C@H]1CN(c2cc(C)c3c4c(c(=O)oc3c2C)CN(C(=O)c2cc(N(C)C)c(C(=O)NS(=O)(=O)N3CCC[C@@H]3C(F)(F)F)cc2F)CC4)CCN1C` [Example 287, 2-(dimethylamino)-5-fluoro-4-(8-((R)-3-(methoxymethyl)-4-methylpiperazin-1-yl)-7,10-dimethyl-5-oxo-1,3,4,5-tetrahydro-2H-chromeno[3,4-c]pyridine-3-carbonyl)-N-(((R)-2-(trifluoromethyl)pyrrolidin-1-yl)sulfonyl)benzamide], in assay [1], the IC50 lay within 10 to 100 nM and the “MTHFD1/MTHFD2 IC50 ratio” value is on record as “H (>9.0 to 30)”. For the same molecule, in assay [2], the IC50 is 100 to 1000 nM.
Consider `COC[C@H]1CN(c2cc(C)c3c4c(c(=O)oc3c2C)CN(C(=O)c2ccc(C(=O)NS(=O)(=O)N(C)C)c(N3CCCC5(CC5)C3)c2)CC4)CCN1C` [Example 120, (R)-N-(N,N-dimethylsulfamoyl)-4-(8-(3-(methoxymethyl)-4-methylpiperazin-1-yl)-7,10-dimethyl-5-oxo-1,3,4,5-tetrahydro-2H-chromeno[3,4-c]pyridine-3-carbonyl)-2-(5-azaspiro[2.5]octan-5-yl)benzamide], for which, in assay [1], the concentration for half-maximal inhibition (IC50) lay within 10 to 100 nM and the “MTHFD1/MTHFD2 IC50 ratio” value is “F (<3)”. The IC50 in assay [2] was in the range of 100 to 1000 nM.
Turning to `COC[C@H]1CN(c2ccc3c4c(c(=O)oc3c2C)CN(C(=O)c2cc(OC3CCCC3)c(C(=O)NS(=O)(=O)N3CCCC3)c(C(F)(F)F)c2)CC4)CCN1C` [Example 107, (R)-2-(cyclopentyloxy)-4-(8-(3-(methoxymethyl)-4-methylpiperazin-1-yl)-7-methyl-5-oxo-1,3,4,5-tetrahydro-2H-chromeno[3,4-c]pyridine-3-carbonyl)-N-(pyrrolidin-1-ylsulfonyl)-6-(trifluoromethyl)benzamide], the values for the IC50 in assay [1] and in assay [2] were 100 to 1000 nM and 1000 to 5000 nM, respectively. In assay [1], the “MTHFD1/MTHFD2 IC50 ratio” value is “G (^ 3 to 9.0)”.
With `COC[C@H]1CN(c2cc(C)c3c4c(c(=O)oc3c2C)CN(C(=O)c2cc3c(c(C(=O)NS(=O)(=O)N5CCCC5)c2)OC2(CCC2)O3)CC4)CCN1C` [Example 167, (R)-6-(8-(3-(methoxymethyl)-4-methylpiperazin-1-yl)-7,10-dimethyl-5-oxo-1,3,4,5-tetrahydro-2H-chromeno[3,4-c]pyridine-3-carbonyl)-N-(pyrrolidin-1-ylsulfonyl)spiro[benzo[d][1,3]dioxole-2,1′-cyclobutane]-4-carboxamide], in assay [1], the half-maximal inhibitory concentration (IC50) was in the range of 100 to 1000 nM and the “MTHFD1/MTHFD2 IC50 ratio” value is on record as “H (>9.0 to 30)”. For the same molecule, the concentration for half-maximal inhibition (IC50) in assay [2] is more than 5000 nM.
Consider `CCCOc1c(C(=O)NS(=O)(=O)N2CCCC2)ccc(C(=O)N2CCc3c(c(=O)oc4c(C)c(N5CCN(C)[C@@H](COC)C5)cc(C)c34)C2)c1F` [Example 205, (R)-3-fluoro-4-(8-(3-(methoxymethyl)-4-methylpiperazin-1-yl)-7,10-dimethyl-5-oxo-1,3,4,5-tetrahydro-2H-chromeno[3,4-c]pyridine-3-carbonyl)-2-propoxy-N-(pyrrolidin-1-ylsulfonyl)benzamide], for which, in assay [1], the half-inhibitory concentration (IC50) was in the range of 10 to 100 nM and the “MTHFD1/MTHFD2 IC50 ratio” value is listed as “G (^ 3 to 9.0)”. The half-maximal inhibitory concentration (IC50) in assay [2] fell in the range of 10 to 100 nM.
`COC[C@H]1CN(c2cc(C)c3c4c(c(=O)oc3c2C)CN(C(=O)c2ccc(C(=O)NS(=O)(=O)N(C)C(C)C)c(O[C@@H]3C[C@@H]5C[C@@H]5C3)c2F)CC4)CCN1C` [Example 36, 2-(((1R,3r,5S)-bicyclo[3.1.0]hexan-3-yl)oxy)-3-fluoro-N-(N-isopropyl-N-methylsulfamoyl)-4-(8-((R)-3-(methoxymethyl)-4-methylpiperazin-1-yl)-7,10-dimethyl-5-oxo-1,3,4,5-tetrahydro-2H-chromeno[3,4-c]pyridine-3-carbonyl)benzamide]: in assay [1], the IC50 is 1 to 10 nM and the “MTHFD1/MTHFD2 IC50 ratio” value is on record as “F (<3)”. Besides, in assay [2], the IC50 is 1 to 10 nM.
In the case of `COC[C@H]1CN(c2cc(C)c3c4c(c(=O)oc3c2C)CN(C(=O)c2ccc(C(=O)NS(=O)(=O)N3CCCC3)c(OC3C[C@@H]5C[C@@H]5C3)c2)CC4)CCN1C` (mixture of isomers) [Example 109, 2-(bicyclo[3.1.0]hexan-3-yloxy)-4-(8-((R)-3-(methoxymethyl)-4-methylpiperazin-1-yl)-7,10-dimethyl-5-oxo-1,3,4,5-tetrahydro-2H-chromeno[3,4-c]pyridine-3-carbonyl)-N-(pyrrolidin-1-ylsulfonyl)benzamide], in assay [1], the IC50 was 10 to 100 nM and the “MTHFD1/MTHFD2 IC50 ratio” value is reported as “F (<3)”. Also, the IC50 in assay [2] lay in the range of 10 to 100 nM.
In the case of `COC[C@H]1CN(c2cc(C)c3c4c(c(=O)oc3c2C)CN(C(=O)c2ccc(C(=O)NS(=O)(=O)N(C)C)c(OC3CCC(F)(F)CC3)c2F)CC4)CCN1C` [Example 85, (R)-2-((4,4-difluorocyclohexyl)oxy)-N-(N,N-dimethylsulfamoyl)-3-fluoro-4-(8-(3-(methoxymethyl)-4-methylpiperazin-1-yl)-7,10-dimethyl-5-oxo-1,3,4,5-tetrahydro-2H-chromeno[3,4-c]pyridine-3-carbonyl)benzamide], in assay [1], the IC50 was 1 to 10 nM and the “MTHFD1/MTHFD2 IC50 ratio” value is “F (<3)”. For the same molecule, in assay [2], the IC50 lay in the range of 1 to 10 nM.

Values taken from patent US12662489B2 (Sitryx Therapeutics Limited, priority 2023, dated 2026).
